Test results from patent US12459956B2, “Heterobicyclic carboxamides and uses thereof” (ALCON INC., priority 2019, dated 2025).

Target: JAK1 (Homo sapiens (Human), UniProt P23458)
Assay: JAK Kinase Assay (JAK1)
Assay type: biochemical
Details: KINASE-GLO luminescent kinase assay

Row | Structure (SMILES) | IC50
1 | O=C(Nc1cc2c(Cl)cncc2s1)[C@@H]1C[C@H]1c1ccccc1 [Compound 15] | 350 nM

Target: JAK2 (Homo sapiens (Human), UniProt O60674)
Assay: JAK Kinase Assay (JAK2)
Assay type: biochemical
Details: KINASE-GLO luminescent kinase assay

JAK2, sequence (O60674 whole entry, species assumed): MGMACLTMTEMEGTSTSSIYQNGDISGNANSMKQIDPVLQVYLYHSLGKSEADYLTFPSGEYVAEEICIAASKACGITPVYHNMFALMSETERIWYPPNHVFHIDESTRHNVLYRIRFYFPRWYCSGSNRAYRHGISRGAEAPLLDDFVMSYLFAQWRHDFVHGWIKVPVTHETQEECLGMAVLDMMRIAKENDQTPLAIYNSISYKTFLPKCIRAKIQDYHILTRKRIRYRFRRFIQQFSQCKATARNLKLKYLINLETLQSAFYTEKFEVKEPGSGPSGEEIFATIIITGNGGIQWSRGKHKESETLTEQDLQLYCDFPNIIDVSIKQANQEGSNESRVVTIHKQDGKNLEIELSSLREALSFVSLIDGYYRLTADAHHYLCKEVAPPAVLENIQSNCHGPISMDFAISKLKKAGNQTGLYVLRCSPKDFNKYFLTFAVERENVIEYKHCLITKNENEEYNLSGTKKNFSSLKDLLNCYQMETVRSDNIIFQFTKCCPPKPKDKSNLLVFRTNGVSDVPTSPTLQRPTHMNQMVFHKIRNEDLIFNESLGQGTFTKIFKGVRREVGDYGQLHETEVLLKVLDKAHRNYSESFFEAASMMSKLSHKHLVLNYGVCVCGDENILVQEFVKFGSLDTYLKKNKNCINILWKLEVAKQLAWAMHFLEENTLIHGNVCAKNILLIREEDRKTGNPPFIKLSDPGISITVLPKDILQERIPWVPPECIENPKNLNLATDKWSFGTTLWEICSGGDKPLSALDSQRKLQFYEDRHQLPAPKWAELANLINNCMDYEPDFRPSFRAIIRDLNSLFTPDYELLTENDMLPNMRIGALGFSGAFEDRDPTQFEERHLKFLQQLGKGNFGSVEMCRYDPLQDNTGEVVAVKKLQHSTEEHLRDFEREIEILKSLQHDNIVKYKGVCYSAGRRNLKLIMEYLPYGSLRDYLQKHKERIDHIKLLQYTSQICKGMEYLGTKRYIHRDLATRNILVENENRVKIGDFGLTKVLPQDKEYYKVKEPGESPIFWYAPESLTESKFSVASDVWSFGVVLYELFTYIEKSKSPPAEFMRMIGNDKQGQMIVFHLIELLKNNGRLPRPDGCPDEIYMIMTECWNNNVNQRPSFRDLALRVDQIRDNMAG

Row | Structure (SMILES) | IC50
2 | O=C(Nc1ccc2cnccc2n1)[C@@H]1CC1c1ccc(S(=O)(=O)Nc2ccccn2)cc1 (mixture of isomers) [Compound 4] | 22 nM
3 | O=C(Nc1ccc2cnccc2n1)C1CC1c1ccc(S(=O)(=O)Nc2ccccn2)cc1 (centres unmarked) [Compound 22] | 22 nM
4 | Cc1cncc2sc(NC(=O)[C@@H]3C[C@H]3c3ccc(S(=O)(=O)Nc4ccccn4)cc3)cc12 (racemic) [Compound 5] | 8.9 nM

Target: TYK2 (Homo sapiens (Human), UniProt P29597)
Sequence (P29597 whole entry, species assumed): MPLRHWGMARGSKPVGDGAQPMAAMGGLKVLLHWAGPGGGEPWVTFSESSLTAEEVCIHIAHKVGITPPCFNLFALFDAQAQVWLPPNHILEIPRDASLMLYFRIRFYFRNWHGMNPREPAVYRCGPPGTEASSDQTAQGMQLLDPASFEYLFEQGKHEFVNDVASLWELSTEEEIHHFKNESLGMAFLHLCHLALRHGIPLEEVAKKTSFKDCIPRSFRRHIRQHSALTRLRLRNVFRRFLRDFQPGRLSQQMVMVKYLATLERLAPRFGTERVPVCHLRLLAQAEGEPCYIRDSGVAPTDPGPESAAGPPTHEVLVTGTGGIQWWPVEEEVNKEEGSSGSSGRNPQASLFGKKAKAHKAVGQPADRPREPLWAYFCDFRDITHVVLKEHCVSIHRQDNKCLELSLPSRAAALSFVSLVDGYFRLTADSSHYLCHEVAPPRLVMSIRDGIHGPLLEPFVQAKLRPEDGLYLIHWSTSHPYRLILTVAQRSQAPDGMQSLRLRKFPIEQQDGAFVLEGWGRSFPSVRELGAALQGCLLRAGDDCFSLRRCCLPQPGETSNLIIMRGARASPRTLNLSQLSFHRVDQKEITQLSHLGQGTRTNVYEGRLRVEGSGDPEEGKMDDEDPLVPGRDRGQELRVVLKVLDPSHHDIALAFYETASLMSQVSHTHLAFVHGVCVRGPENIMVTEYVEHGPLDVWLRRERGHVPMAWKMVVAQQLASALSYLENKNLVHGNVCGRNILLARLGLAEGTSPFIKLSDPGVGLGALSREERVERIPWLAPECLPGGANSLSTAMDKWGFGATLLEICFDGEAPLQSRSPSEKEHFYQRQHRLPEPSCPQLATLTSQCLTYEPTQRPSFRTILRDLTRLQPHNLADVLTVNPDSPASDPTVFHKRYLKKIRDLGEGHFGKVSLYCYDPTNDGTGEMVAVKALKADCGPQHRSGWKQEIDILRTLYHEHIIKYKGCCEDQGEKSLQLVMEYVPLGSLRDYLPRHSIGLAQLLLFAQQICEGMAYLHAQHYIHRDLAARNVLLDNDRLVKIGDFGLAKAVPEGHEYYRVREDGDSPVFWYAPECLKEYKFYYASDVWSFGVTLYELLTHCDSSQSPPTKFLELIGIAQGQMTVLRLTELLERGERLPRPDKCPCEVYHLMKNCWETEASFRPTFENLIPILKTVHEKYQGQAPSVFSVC
Assay: JAK Kinase Assay (TYK2)
Assay type: biochemical
Details: KINASE-GLO luminescent kinase assay

Row | Structure (SMILES) | IC50
5 | Cc1cncc2sc(NC(=O)[C@@H]3C[C@H]3c3ccc(S(=O)(=O)Nc4ccccn4)cc3)cc12 [Compound 6] | 8 nM
6 | O=C(Nc1cc2c(Cl)cncc2s1)[C@@H]1C[C@H]1c1ccc(S(=O)(=O)Nc2ccccn2)cc1 [Compound 7] | 1.1 nM
7 | O=C(NCc1ncccn1)c1csc(C2CC2C(=O)Nc2cc3c(Cl)cncc3s2)c1 (centres unmarked) [Compound 20] | 35 nM

Target: ROCK2 (Homo sapiens (Human), UniProt O75116)
Sequence (O75116 whole entry, species assumed): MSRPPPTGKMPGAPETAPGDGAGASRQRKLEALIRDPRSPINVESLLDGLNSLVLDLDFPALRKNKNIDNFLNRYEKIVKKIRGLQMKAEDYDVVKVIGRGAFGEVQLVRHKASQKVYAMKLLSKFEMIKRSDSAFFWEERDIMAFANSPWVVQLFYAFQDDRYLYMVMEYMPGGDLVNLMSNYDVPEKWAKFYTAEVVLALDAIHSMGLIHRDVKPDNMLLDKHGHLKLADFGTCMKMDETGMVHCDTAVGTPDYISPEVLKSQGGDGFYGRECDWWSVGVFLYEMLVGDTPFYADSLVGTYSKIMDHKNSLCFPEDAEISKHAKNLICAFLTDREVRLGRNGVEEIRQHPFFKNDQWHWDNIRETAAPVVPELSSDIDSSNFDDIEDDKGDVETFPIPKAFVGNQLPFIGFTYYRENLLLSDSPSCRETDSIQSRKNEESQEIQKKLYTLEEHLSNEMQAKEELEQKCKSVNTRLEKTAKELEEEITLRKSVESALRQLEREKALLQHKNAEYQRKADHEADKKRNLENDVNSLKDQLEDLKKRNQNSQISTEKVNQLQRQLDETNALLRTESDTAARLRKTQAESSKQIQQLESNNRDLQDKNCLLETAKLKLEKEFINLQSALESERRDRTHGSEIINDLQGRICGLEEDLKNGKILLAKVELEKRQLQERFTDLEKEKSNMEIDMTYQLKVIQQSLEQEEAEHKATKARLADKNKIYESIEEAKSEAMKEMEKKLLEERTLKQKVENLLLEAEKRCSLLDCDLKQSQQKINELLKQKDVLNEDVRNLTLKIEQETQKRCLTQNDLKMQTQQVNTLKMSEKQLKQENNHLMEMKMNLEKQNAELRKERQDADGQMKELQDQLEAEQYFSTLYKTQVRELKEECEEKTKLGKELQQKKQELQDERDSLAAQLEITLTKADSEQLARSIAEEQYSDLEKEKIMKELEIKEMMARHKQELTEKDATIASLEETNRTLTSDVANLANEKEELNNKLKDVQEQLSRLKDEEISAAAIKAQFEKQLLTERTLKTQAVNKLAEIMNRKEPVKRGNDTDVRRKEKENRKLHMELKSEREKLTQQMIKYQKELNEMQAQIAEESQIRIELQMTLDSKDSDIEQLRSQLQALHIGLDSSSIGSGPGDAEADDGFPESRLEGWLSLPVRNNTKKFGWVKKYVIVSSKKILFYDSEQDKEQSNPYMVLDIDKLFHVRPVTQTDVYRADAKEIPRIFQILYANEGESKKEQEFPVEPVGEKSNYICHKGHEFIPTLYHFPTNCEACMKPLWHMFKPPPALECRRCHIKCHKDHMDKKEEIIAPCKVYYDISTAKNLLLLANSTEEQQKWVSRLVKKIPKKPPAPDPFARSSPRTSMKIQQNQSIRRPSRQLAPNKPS
Assay: ROCK Kinase Inhibition Assay (ROCK2)
Assay type: biochemical
Details: KINASE-GLO luminescent kinase assay
Description: (§1) All compounds were initially prepared as 10 mM stocks in anhydrous dimethylsulfoxide (DMSO). A 20 μL aliquot of the 10 mM solutions was transferred to individual wells in column 1 of a 96-well polypropylene microtiter plate (Corning #3363) and diluted with DMSO to give a final compound concentration of 4 mM. Test compounds were then serially diluted 1:5 in DMSO for an 11-point concentration response and further diluted in the assay buffer bringing all compound concentrations to a final range of 100 μM to […] in 2.5% DMSO. The assay was performed in white 96-well, flat-bottom, half-area, non-binding assay plate (Corning #3642) in assay buffer consisting of 20 mM HEPES (pH 7.5), 10 mM MgCl2*6H2O, 100 μM sodium orthovanadate, 0.05% CHAPS and 0.1% bovine serum albumin. […] The reaction was initiated by the addition of 10 μL of 4× stock solution ATP (2 μM). Reactions were thoroughly mixed manually, covered and allowed to incubate at room temperature for 75 min. Protein kinase activity was quantitated using Promega's KINASE-GLO™ luminescent Kinase Assay Kit according to the manufacturer's directions. ATP concentrations remaining in Test wells following the termination of the enzymatic reaction were compared against control wells containing equivalent amounts of DMSO containing no inhibitor (CTRL). […] Percent of Control (POC) values were determined for each concentration of compound tested according to the equation: POC=((Test well value−BKG)/(CTRL−BKG))*100 IC50 values were calculated using the following 4-parameter logistic curve-fitting algorithm: f(x)=(A+((B−A)/(1+((x/C)^D)))) IC50 values were converted to Ki values using the following Cheng-Prusoff Equation: Ki=IC50/(1+([ATP]/Km ATP])). JAK Kinase Assays.

Row | Structure (SMILES) | IC50
8 | O=C(Nc1nc2ccncc2s1)C1CC1c1ccncc1 (centres unmarked) [Compound 18] | 30 nM
9 | Cc1cncc2sc(NC(=O)C3CC3c3cc(C(=O)NCc4ncccn4)cs3)cc12 (centres unmarked) [Compound 2] | 5 nM
10 | Cc1cncc2sc(NC(=O)C3CC3c3ccncc3)cc12 (centres unmarked) [Compound 14] | 230 nM
11 | O=C(Nc1ccc2cnccc2n1)C1CC1c1ccncc1 (centres unmarked) [Compound 17] | 30 nM
12 | O=C(Nc1ccc2cnccc2n1)C1CC1c1ccccc1 (centres unmarked) [Compound 11] | 7 nM
13 | O=C(Nc1cc2c(Cl)cncc2s1)C1CC1c1ccncc1 (centres unmarked) [Compound 21] | 111 nM
14 | O=C(Nc1ccc2cnccc2n1)[C@@H]1CC1c1ccc(S(=O)(=O)Nc2ccccn2)cc1 (mixture of isomers) [Compound 4] | 6 nM
15 | Cc1cncc2sc(NC(=O)[C@@H]3C[C@H]3c3ccccc3)cc12 [Compound 13] | 18 nM
16 | O=C(Nc1nc2ccncc2s1)C1CC1c1ccccc1 (centres unmarked) [Compound 12] | 12 nM
17 | Cc1cncc2sc(NC(=O)C3CC3c3ccccc3)cc12 (centres unmarked) [Compound 16] | 54 nM
18 | O=C(Nc1nc2ccncc2s1)[C@@H]1CC1c1ccc(S(=O)(=O)Nc2ccccn2)cc1 (mixture of isomers) [Compound 3] | 6 nM

Target: ROCK1 (Homo sapiens (Human), UniProt Q13464)
Sequence (Q13464 whole entry, species assumed): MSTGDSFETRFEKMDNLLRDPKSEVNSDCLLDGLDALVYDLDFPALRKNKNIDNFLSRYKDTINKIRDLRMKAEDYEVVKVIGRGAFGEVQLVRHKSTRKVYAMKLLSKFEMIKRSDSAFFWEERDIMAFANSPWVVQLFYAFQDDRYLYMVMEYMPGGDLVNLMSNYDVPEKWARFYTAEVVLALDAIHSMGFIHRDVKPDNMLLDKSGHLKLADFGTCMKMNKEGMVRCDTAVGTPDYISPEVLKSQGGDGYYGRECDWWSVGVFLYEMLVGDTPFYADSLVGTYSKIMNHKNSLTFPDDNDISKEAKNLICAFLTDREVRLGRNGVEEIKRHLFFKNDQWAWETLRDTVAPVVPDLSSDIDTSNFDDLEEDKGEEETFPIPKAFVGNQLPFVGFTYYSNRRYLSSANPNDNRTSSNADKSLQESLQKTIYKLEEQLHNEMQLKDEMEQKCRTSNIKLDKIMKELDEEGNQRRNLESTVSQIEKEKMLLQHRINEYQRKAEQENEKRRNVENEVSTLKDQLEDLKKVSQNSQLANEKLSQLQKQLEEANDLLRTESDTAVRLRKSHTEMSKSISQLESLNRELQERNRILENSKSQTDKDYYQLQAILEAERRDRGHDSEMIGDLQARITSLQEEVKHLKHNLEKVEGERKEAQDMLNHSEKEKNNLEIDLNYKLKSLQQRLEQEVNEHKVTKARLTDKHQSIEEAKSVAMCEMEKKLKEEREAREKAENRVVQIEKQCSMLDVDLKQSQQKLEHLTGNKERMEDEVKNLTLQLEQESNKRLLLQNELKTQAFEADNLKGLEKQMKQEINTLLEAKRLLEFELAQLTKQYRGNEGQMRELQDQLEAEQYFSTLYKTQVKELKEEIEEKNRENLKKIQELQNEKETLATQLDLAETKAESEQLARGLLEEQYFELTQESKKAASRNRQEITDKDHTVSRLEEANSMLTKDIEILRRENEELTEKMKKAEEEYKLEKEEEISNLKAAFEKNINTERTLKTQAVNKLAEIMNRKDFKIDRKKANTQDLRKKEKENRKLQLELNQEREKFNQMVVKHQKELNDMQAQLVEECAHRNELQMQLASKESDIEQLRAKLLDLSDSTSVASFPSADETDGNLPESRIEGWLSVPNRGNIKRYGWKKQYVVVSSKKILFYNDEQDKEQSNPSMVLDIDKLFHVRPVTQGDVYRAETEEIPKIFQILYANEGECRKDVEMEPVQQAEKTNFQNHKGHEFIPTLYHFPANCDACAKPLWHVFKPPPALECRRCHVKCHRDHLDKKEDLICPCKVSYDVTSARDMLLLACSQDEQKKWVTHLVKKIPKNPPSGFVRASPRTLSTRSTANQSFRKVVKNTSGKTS
Assay: ROCK Kinase Inhibition Assay (ROCK1)
Assay type: biochemical
Details: KINASE-GLO luminescent kinase assay
Description: as §1, with “Reactions were thoroughly mixed manually, covered and allowed to incubate at room temperature for 75 min.” left out, “directions.” for “directions. ATP concentrations remaining in Test wells following the termination of the enzymatic reaction were compared against control wells containing equivalent amounts of DMSO containing no inhibitor (CTRL).”, “JAK Kinase Assays.” left out

Row | Structure (SMILES) | IC50
19 | O=C(Nc1cc2c(Cl)cncc2s1)C1CC1c1ccccc1 (centres unmarked) [Compound 19] | 43 nM
20 | O=C(Nc1nc2ccncc2s1)[C@@H]1CC1c1ccc(S(=O)(=O)Nc2ccccn2)cc1 (mixture of isomers) [Compound 3] | 7 nM
